Calls of active or inactive are those of the source. The calls are words filed in the database; no cut-off is given here.
Each compound was assayed on Gerbillinae (assay: Anthelmintic activity against immunosuppressed Mongolian gerblis(jirds) inoculated with Haemonchus contortus and Trichostrongylus colubriform; not active).
Type: functional

Compound | Activity
CN1C(=O)[C@@]23CCCCN2C[C@@]12C[C@@]1(C(=O)Nc4c1ccc1c4OCC(O)C(C)(C)O1)C(C)(C)[C@H]2C3 (stereo not given in full) | inactive
CN1C(=O)[C@]23C[C@@H]4C(C)(C)[C@@]5(C[C@@]41CN2CC[C@@]3(C)O)C(=O)Nc1c5ccc2c1OC=CC(C)(C)O2 | inactive
CN1C(=O)[C@@]23CCCCN2C[C@@]12C[C@@]1(C(=O)Nc4c1ccc1c4OC=CC(C)(C)O1)C(C)(C)[C@H]2C3 | inactive
CC1=COc2c(ccc3c2NC(=O)[C@@]32C[C@@]34CN5CCCC[C@]5(C[C@@H]3C2(C)C)C(=O)N4C)OC1(C)C | inactive
CN1C(=O)[C@@]23CCCCN2C[C@@]12C[C@@]1(C(=O)Nc4c1ccc(O)c4O)C(C)(C)[C@H]2C3 | inactive
CN1C(=O)[C@@]23CCCCN2C[C@@]12C[C@@]1(C(=O)Nc4c1ccc1c4OCC(=O)C(C)(C)O1)C(C)(C)[C@H]2C3 | inactive
C=C1COc2ccc3c(c2OC1)NC(=O)[C@@]31C[C@@]23CN4CCCC[C@]4(C[C@@H]2C1(C)C)C(=O)N3C | inactive
CN1C(=O)[C@@]23CCCCN2C[C@@]12C[C@@]1(C(=O)Nc4c1ccc1c4OCC(C)(O)C(C)(C)O1)C(C)(C)[C@H]2C3 (stereo not given in full) | inactive
CN1C(=O)[C@@]23CCCCN2C[C@@]12C[C@@]1(C(=O)Nc4c1ccc1c4OCC4(CO4)C(C)(C)O1)C(C)(C)[C@H]2C3 (stereo not given in full) | inactive

What follows are compounds tested on Gerbillinae (assay: Anthelmintic activity against immunosuppressed Mongolian gerblis(jirds) inoculated with Haemonchus contortus and Trichostrongylus colubriform;found to be active).
Type: functional

Compound | Activity
C=C1COc2c(ccc3c2NC(=O)[C@@]32C[C@@]34CN5CCCC[C@]5(C[C@@H]3C2(C)C)C(=O)N4C)OC1(C)C | Active

Reference: ChEMBL document CHEMBL1130697, “C24 and C25 substituted marcfortine A derivatives” (Bioorg Med Chem Lett, 1998)
